Experimental data from patent US20250115612A1, “CERTAIN 2,5-DIAZABICYCLO[4.2.0]OCTANES AND OCTAHYDROFURO[3,4-B]PYRAZINES AS GLP-1 RECEPTOR MODULATORS” (ASTRAZENECA AB, priority 2021, published 2025).

Key:
human GLP-1R receptor = biological target: T1, human GLP-1R receptor (Homo sapiens, UniProt P43220, L260F); assay: CHOK1 GLP-1R cAMP assay (HTRF); format: cell-based; settings: CHO-K1 cells stably expressing human GLP-1R
T1 construct: expressed in transfected cells; host or cells: CHO-K1 (ATCC CCL-61)
Protocol: A cell line stably expressing the human GLP-1R receptor (NM_002062.5, including the naturally-occurring variant Leu260Phe) in a CHO-K1 (ATCC® CCL-61™) was used for assay.
GLP-1 receptor mediated agonist activity was determined in a cell-based assay measuring cyclic adenosine monophosphate (cAMP) levels in cells using Homogeneous Time-Resolved Fluorescence (HTRF) cAMP detection kit (CisBio catalog #62AM4PEC, cAMP Gs Dynamic range kit). The cAMP detection method is based on a competitive immunoassay, in which cAMP produced by the cells and cAMP labeled with the dye d2 compete for binding to a Europium-Cryptate-labeled anti-cAMP antibody. The specific HTRF signal is inversely proportional to the concentration of cAMP.
Compounds were added to individual well in 384 well-assay plates (Greiner #784076) using an Echo (LabCyte) dispenser from 10 mM stocks. Varying concentration of compounds were added to wells, and DMSO was used to normalize each well to a volume of 100 nL. A dose response curve of GLP-1(7-36)NH2 (Bachem H-6795) was included in each run. 5 μL of cAMP concentration response standards are applied in specified wells in the assay plates. Cryo-preserved cells are thawed and resuspended in assay buffer pre-heated to 37° C. (20 mM 2-[4-(2-hydroxyethyl)piperazin-1-yl]ethanesulfonic acid (HEPES) pH 7.4, lx Hank's Balanced Salt Solution (HBSS, Life Technologies #14065) supplemented with 0.1% (w/v) bovine serum albumin (Sigma, A-7030)). Cells were centrifuged at 250*g for 5 min at rt, and resuspended in room tempered assay buffer to a final density of 0.16*10^6 cell/mL, to deliver 800 cells/well. 5 μL of assay buffer with 1 mM 3-isobutyl-1-methylxanthin (IBMX; Sigma cat I-7018) was dispensed per well in assay plates using a multidrop combi (Thermo Scientific) subsequently 5 μL of cell suspension was distributed to relevant wells in the assay using a multidrop dispenser. Assay plates were incubated 20 min at rt.
Detection reagents, Europium-Cryptate-labeled anti-cAMP antibody and cAMP labeled with the dye d2, are diluted in lysis buffer, provided by the manufacturer. 5 μL of each detection reagent is supplemented to each assay well using a multidrop dispenser. Assay plates are incubated in the dark for at least one h. The HTRF signal is measured using the HTRF module (excitation: 337 nm, emission A: 665 nm and emission B: 620 nm) in Pherastar FSX (BMG Labtech).
Raw data were converted to pM cAMP using the cAMP standard curve included in each run. Converted data were further analyzed in Genedata Screener (Genedata) and EC50 determinations were made from agonist dose-response curves analyzed with a curve fitting program using a 4-parameter logistic dose response equation (Equation y=A+((B−A)/1+((C/x)^D))) where A is no stimulation, B is full stimulation, C is the EC50 and D is the Hill slope). The percent effect was determined relative to a saturating concentration of a full GLP-1R agonist (GLP-1(7-36)NH2 has 100% effect in this assay setup).

GLP-1R = biological target: T2, GLP-1R (Homo sapiens, UniProt P43220); assay: EndoC cAMP accumulation assay (HTRF, EndoC-βH1 cells); format: cell-based; settings: EndoC-βH1 human pancreatic β cell line
T2 construct: host or cells: EndoC-βH1
Excerpt: EndoC cAMP Accumulation Assay
A HTRF cAMP assay (cAMP Gs dynamic kit; CisoBio Cat #62AM4PEJ) was used to identify agonists of GLP-1R in a pancreatic insulinoma cell line (EndoC-PH1). […] EndoC-βH1 cells have detectable GLP-1R messenger ribonucleic acid (mRNA) as detected by quantitative polymerase chain reaction (qPCR). […] The EndoC-βH1 cell line is a valid model of human beta cells and applicable for screenings to identify novel drug target candidates (Mol. Metab., 2018, 8, 144-157). CisBio HTRF cAMP kits are based on a competitive immunoassay using cryptate-labelled anti-cAMP antibody and d2-labeled cAMP. The detection kit is intended for the direct quantitative determination of cAMP. The specific signal (i.e. energy transfer) is inversely proportional to the concentration of cAMP in the standard or sample. Test compounds (10 mM in DMSO) were diluted into assay buffer (HBSS (Sigma #H8264) supplemented with 25 mM HEPES (Gibco #15630, pH 7.4), 0.1% BSA (Sigma #A3059) and 0.5 mM IBMX (Sigma #I7018) included fresh on the day of the assay) into 96 well U-bottom plates (Greiner #650201). Diluted compounds were transferred to ECHO source polypropelene plates (Labcyte #P-05525) and dose response curves were dispensed acoustically using ECHO 550 into black shallow-well u-bottom 384-well HTRF Assay Plates (Corning 4514).
Cryovials of EndoC-H1 (supplied at 1×10e^7 cells/vial) were used directly for screening. The cryovials and were removed from N2(l) and thawed rapidly in a 37° C. water bath. The cells were resuspended in assay buffer and centrifuged at 300 g for 5 min. Cells were resuspended in assay buffer at the appropriate concentration, typically at 12e5 cells per mL (3000 cells per well, dependent on cell batch) and 2.5 μL diluted cells were added to all wells of destination plate by Multidrop combi reagent dispenser (Thermofisher). The plates were incubated at rt for 30 min. The assay was stopped by adding 2.5 μL anti-cAMP cryptate solution to all wells and 2.5 μL cAMP-d2 solution (both diluted 1:20 in lysis buffer) to columns 1-22 by Combi drop. A volume of 2.5 μL cAMP-d2 solution was added to wells E23 to P24 and 2.5 μL lysis buffer added to wells A23 to D24 by multichannel pipette. The plates were incubated at rt for 1 h and read on an Envision plate reader using excitation wavelength of 320 nm and emission of 590 nm and 660 nm.
Raw data from Envision is converted to % DeltaF according to the manufacturer's instructions. Dose response curves are analysed via 4-Parameter Logistical Analysis and assay plate Z′ values obtained. Samples are graphed as percentage (%) activation plots compared to GIP (1-42, Bachem H-5645) with assay window defined by negative control as basal cell cAMP levels and positive control are defined by maximum GIP (82.5 nM) signal. GLP-1 (7-36 amide, Bachem H-6795) dose response curve was included on all plates.

T1 sequence (P43220 24-463 L260F): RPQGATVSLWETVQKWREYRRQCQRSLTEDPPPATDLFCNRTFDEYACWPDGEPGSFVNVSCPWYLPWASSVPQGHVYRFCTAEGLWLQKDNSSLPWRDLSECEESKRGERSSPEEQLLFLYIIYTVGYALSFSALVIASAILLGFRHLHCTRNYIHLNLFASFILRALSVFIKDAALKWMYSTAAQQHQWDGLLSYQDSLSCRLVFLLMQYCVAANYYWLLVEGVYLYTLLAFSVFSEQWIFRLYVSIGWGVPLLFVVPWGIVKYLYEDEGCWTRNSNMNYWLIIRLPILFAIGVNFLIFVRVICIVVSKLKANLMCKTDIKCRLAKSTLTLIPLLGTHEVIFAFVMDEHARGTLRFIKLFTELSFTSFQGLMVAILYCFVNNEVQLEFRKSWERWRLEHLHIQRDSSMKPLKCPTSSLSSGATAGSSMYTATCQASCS
T2 sequence (P43220 24-463): as the sequence (P43220 24-463 L260F) above, with F237L counted along it

EC50 (human GLP-1R receptor) [µM] | EC50 (GLP-1R) [µM] | Compound
0.017 | 0.032 | N#Cc1ccc(COc2cccc(N3CCN(Cc4nc5ccc(C(=O)O)cc5n4C[C@@H]4CCO4)[C@H]4CC[C@H]43)n2)c(F)c1 (single isomer, unassigned) [Example 2b, 2-(((1R*,6S*)-5-(6-((4-Cyano-2-fluorobenzyl)oxy)pyridin-2-yl)-2,5-diazabicyclo[4.2.0]octan-2-yl)methyl)-1-(((S)-oxetan-2-yl)methyl)-1H-benzo[d]imidazole-6-carboxylic acid]
0.11 | 0.089 | O=C(O)c1cc(F)c2nc(CN3CCN(c4cccc(OCc5ccc(Cl)cc5F)n4)[C@@H]4COC[C@@H]43)n(C[C@H]3CCOC3)c2c1 (single isomer, unassigned) [Example 18a]
0.0089 | 0.016 | CCn1cncc1Cn1c(CN2CCN(c3cccc(OCc4ccc(Cl)cc4F)n3)[C@H]3CC[C@@H]32)nc2c(OC)cc(C(=O)O)cc21 (single isomer, unassigned) [Example 12b]
0.057 | 0.015 | O=C(O)c1cc(F)c2nc(CN3CCN(c4cccc(OCc5ccc(Cl)cc5F)n4)[C@@H]4COC[C@@H]43)n(C[C@H]3CCOC3)c2c1 (single isomer, unassigned) [Example 18b]
0.0061 | 0.028 | N#Cc1ccc(COc2cccc(N3CCN(Cc4nc5ccc(C(=O)O)c(Cl)c5n4C[C@@H]4CCO4)[C@H]4CC[C@H]43)n2)c(F)c1 (single isomer, unassigned) [Example 8a]
0.18 | 0.069 | N#Cc1ccc(COc2cccc(N3CCN(Cc4nc5cc(F)c(C(=O)O)cc5n4C[C@@H]4CCO4)[C@H]4CC[C@@H]43)n2)c(F)c1 (single isomer, unassigned) [Example 9a]
0.0012 | 0.0041 | N#Cc1ccc(COc2cccc(N3CCN(Cc4nc5ccc(C(=O)O)cc5n4C[C@@H]4CCO4)[C@H]4CC[C@H]43)n2)c(F)c1 (single isomer, unassigned) [Example 2a, 2-(((1R*,6S*)-5-(6-((4-Cyano-2-fluorobenzyl)oxy)pyridin-2-yl)-2,5-diazabicyclo[4.2.0]octan-2-yl)methyl)-1-(((S)-oxetan-2-yl)methyl)-1H-benzo[d]imidazole-6-carboxylic acid]
0.028 | 0.041 | N#Cc1ccc(COc2cccc(N3CCN(Cc4nc5ccc(C(=O)O)c(Cl)c5n4C[C@@H]4CCO4)[C@H]4CC[C@H]43)n2)c(F)c1 (single isomer, unassigned) [Example 8b]
0.0064 | 0.004 | COc1cc(C(=O)O)cc2c1nc(CN1CCN(c3cccc(OCc4ccc(Cl)cc4F)n3)[C@H]3CC[C@@H]31)n2C[C@@H]1CCO1 (single isomer, unassigned) [Example 5a, 2-(((1R*,6R*)-5-(6-((4-Chloro-2-fluorobenzyl)oxy)pyridin-2-yl)-2,5-diazabicyclo[4.2.0]octan-2-yl)methyl)-4-methoxy-1-(((S)-oxetan-2-yl)methyl)-1H-benzo[d]imidazole-6-carboxylic acid]
0.25 |  | N#Cc1ccc(COc2cccc(N3CCN(Cc4nc5cc(Cl)c(C(=O)O)cc5n4C[C@@H]4CCO4)[C@H]4CC[C@H]43)n2)c(F)c1 (single isomer, unassigned) [Example 7c]
0.25 | 1.1 | Cc1nccn1CCn1c(CN2CCN(c3cccc(OCc4ccc(Cl)cc4F)n3)[C@@H]3COC[C@@H]32)nc2ccc(C(=O)O)cc21 (single isomer, unassigned) [Example 25b]
0.0022 |  | CCn1cncc1Cn1c(CN2CCN(c3cccc(OCc4ccc(Cl)cc4F)n3)[C@H]3CC[C@@H]32)nc2c(OC)cc(C(=O)O)cc21 (single isomer, unassigned) [Example 12a]

Second part, the molecule before the results:

Compound | EC50 (human GLP-1R receptor) [µM] | EC50 (GLP-1R) [µM]
O=C(O)c1ccc2nc(CN3CCN(c4cccc(OCc5ccc(Cl)cc5F)n4)[C@@H]4COC[C@@H]43)n(Cc3cocn3)c2c1 (single isomer, unassigned) [Example 20] | 0.035 | 0.037
Cc1ccnc(Cn2c(CN3CCN(c4cccc(OCc5ccc(C#N)cc5F)n4)[C@@H]4CC[C@@H]43)nc3ccc(C(=O)O)cc32)c1 (racemic) [Example 14, rac-2-(((1R,6S)-5-(6-((4-Cyano-2-fluorobenzyl)oxy)pyridin-2-yl)-2,5-diazabicyclo[4.2.0]octan-2-yl)methyl)-1-((4-methylpyridin-2-yl)methyl)-1H-benzo[d]imidazole-6-carboxylic acid] | 0.4 | 2.8
Cc1nccn1CCn1c(CN2CCN(c3cccc(OCc4ccc(Cl)cc4F)n3)[C@@H]3COC[C@@H]32)nc2c(Cl)cc(C(=O)O)cc21 (single isomer, unassigned) [Example 24] | 0.25 | 0.34
O=C(O)c1ccc2nc(CN3CCN(c4cccc(OCc5ccc(Cl)cc5F)n4)[C@@H]4COC[C@@H]43)n(C[C@@H]3CCO3)c2c1 (racemic) [Example 15, 2-(((4aRS,7aSR)-4-(6-((4-Chloro-2-fluorobenzyl)oxy)pyridin-2-yl)hexahydrofuro[3,4-b]pyrazin-1(2H)-yl)methyl)-1-(((S)-oxetan-2-yl)methyl)-1H-benzo[d]imidazole-6-carboxylic acid] | 0.0033 | 0.014
CC(C)(C)OCCn1c(CN2CCN(c3cccc(OCc4ccc(C#N)cc4F)n3)[C@@H]3CC[C@@H]32)nc2ccc(C(=O)O)cc21 (racemic) [Example 10, rac-1-(2-(tert-Butoxy)ethyl)-2-(((1R,6S)-5-(6-((4-cyano-2-fluorobenzyl)oxy)pyridin-2-yl)-2,5-diazabicyclo[4.2.0]octan-2-yl)methyl)-1H-benzo[d]imidazole-6-carboxylic acid] | 0.37 | 
CCCCOCCn1c(CN2CCN(c3cccc(OCc4ccc(C#N)cc4F)n3)[C@@H]3CC[C@@H]32)nc2ccc(C(=O)O)cc21 (racemic) [Example 11, rac-1-(2-Butoxyethyl)-2-(((1R,6S)-5-(6-((4-cyano-2-fluorobenzyl)oxy)pyridin-2-yl)-2,5-diazabicyclo[4.2.0]octan-2-yl)methyl)-1H-benzo[d]imidazole-6-carboxylic acid] | 0.15 | 
